Assay [1] relates to adult hippocampus-derived neural progenitor cells. As to the kind of experiment: cell death by live staining with propidium iodide and Hoechst 33342. As to conditions: 500 ng/ml IGF-I. It is filed as cell-based, rat. As for the experimental part:
We first directly measured the effect of IGF-I on cell survival. We asked whether a selective decrease in the death of oligodendrocytes (and/or oligodendrocyte progenitors) could explain the net increase in number of oligodendrocytes (defined by the expression of RIP, a marker of both immature and mature oligodendrocytes). […] To quantify cell death of the progeny of neural progenitor cells, living cultures were stained with propidium iodide (1 μg/ml), which stains dead cells, and Hoechst 33342 (1 μg/ml), which stains live and dead cells. Staining of live, rather than fixed, cultures was used to avoid underestimating cell death due to possible detachment of dying and/or dead cells from culture substrates. […]
Cells were fixed with 4% paraformaldehyde, followed by immunocytochemical staining as described (Palmer et al., 1999). […] Quantification of cell phenotypes was with StereoInvestigator (MicroBrightfield Inc.); for each marker, 500-1000 cells were sampled systematically from standardized fields at 40×magnification. For quantification of live/dead cells, images were taken of cultures live-stained with propidum iodide (1 μg/ml; Molecular Probes) and Hoescht 33342 (1 μg/ml; Sigma) at 10×magnification, and cells were counted using Image-Pro (Media Cybernetics). […]

In assay [2] the test system is oligodendrocytes in the hilus of the adult rat hippocampus. In words: IGF-I overexpression in vivo in the hippocampus (hilus), immunohistochemistry. As to conditions: 4 weeks after injection. The protocol: cDNA encoding the human IGF-I gene was cloned into a recombinant AAV vector and the virus was prepared as previously described (Kaspar et al., 2002). Expression of IGF-I and {overscore (β)}gal (control AAV) was first confirmed in human embryonic kidney (HEK-293) cells by RT-PCR and Western analysis and subsequently in the hippocampus by RT-PCR analysis (unpublished data). Recombinant AAV-IGF-I (rAAV-IGF-I) or AAV-{overscore (β)}gal (rAAV-{overscore (β)}gal) was stereotaxically injected into the hippocampus (anteroposterior axis, −4.0 mm; mediolateral axis, +2.0 mm; dorsoventral axis, −3.0 from skull, with nose bar at 3.3 mm up) of anesthetized female Fischer-344 rats (150-175 g; n=6). […]
All comparative analyses were focused on the hilus of the injected side on matched hippocampal sections. For RIP or MBP staining, immunofluorescence average pixel intensity of equivalent sized fields (4 from each animal) in control and experimental groups was determined from digital images using Adobe Photoshop. To quantify the number of oligodendrocytes, sections were immunostained with GST-π. Only immunolabeled cells with a clear DAPI-positive nucleus were scored. For quantification of GST-π cells, area counts of the hilus within the dentate gyrus of the hippocampus were performed. […] The results are expressed as the average number of cells per section.

Assay [3] concerns Smad6. As to the kind of experiment: quantitative real time PCR, Smad6 expression. It counts as cell-based, rat. As to conditions: 500 ng/ml IGF-I, up to 48 hours, normalized to GAPDH. From the text: (§1) If IGF-I induction of oligodendrocyte differentiation involves the inhibition of BMP signaling, a change in the expression of BMP antagonists after IGF-I treatment might be observed. In addition to extracellular antagonists of BMP signaling, such as Noggin, intracellular proteins that can interfere with downstream BMP receptor signaling, called inhibitory Smads (Smad6, 7), have also been identified (Christian and Nakayama, 1999). Therefore, we performed Q-PCR analyses of cultures treated with IGF-I after various time points (up to 48 hours) and examined the relative fold change (normalized to an internal control; see Methods) of Noggin, Smad6, 7 (FIG. 6, A-C). Expression of Noggin, Smad6, 7 increased by at least 6-, 5-, and 2-fold, respectively, after IGF-I treatment (p<0.05, t-test). There may be an unexplained downregulation of Smad6 at the 48-h time point.
(§2) Total RNA was isolated from cell cultures using RNeasy columns (Qiagen). For real-time quantitative PCR, reactions were carried out essentially as described (Zhao et al., 2001). The relative amount of the tested message was normalized to the level of the internal control message, GAPDH. […] Primer sequences are available upon request.

In assay [4] the test system is Smad7. In words: quantitative real time PCR, Smad7 expression. It counts as cell-based, rat. Particulars: 500 ng/ml IGF-I, up to 48 hours, normalized to GAPDH.
Text: as §1, §2

Regarding “IGF-I: human recombinant IGF-I (R&D Systems), growth factor polypeptide”, the “percentage of dead/dying cells” value in assay [1] (every 12 hours up to 48 h) is recorded as “relatively small percentage of dead/dying cells”. Further, the “change in the percentage of cells that died between time points” value in assay [1] (one-way ANOVA) is on record as “no significant change”. The “GFAP staining vs control animals” value in assay [2] was “no observable difference in GFAP staining”. The “relative fold change of Smad6 expression” value in assay [3] is reported as not below 5 fold. The “relative fold change of Smad7 expression” value in assay [4] was not below 2 fold.

(Values after patent US20050148069A1, “IGF-1 instructs multipotent adult CNS neural stem cells to an oligodendroglial lineage” (priority 2003, published 2005).)
